Assay results reported in patent US4481218A, “3-(2,2,2-Trimethylhydrazinium)propionate and method for the preparation and use thereof” (Institut Organicheskogo Sinteza Akademii Nauk Latviiskoi SSR, priority 1978, dated 1984).

Tests used:
chicks [1] = experiment: growth stimulator efficiency in chicks, 0.02% in feedstuff (Example 6, Table 1); format: in vivo; conditions: 0.02% by weight in feedstuff
Procedure: (§1) The growth stimulator for animals and fowl containing 3-(2,2,2-trimethylhydrazinium)-propionate as the active principle is tested for efficiency. The test is conducted in chicks of 6 days of age, the test group consisting of 50 chicks and the control group--50 chicks. The test chicks were fed with a feedstuff containing 0.02% by weight of the active principle, the control group--only basic diet without the addition of the active principle. The chicks' diet contained, % by weight: barley--20, wheat--6, corn--40, sunflower and soya-bean grist--19, fish flour--7, meat-bone flour--3, yeast--5. One kilogram of the feedstuff contained 1.25 feeding unit, 3,135 kCal of exchange energy, 21% of a crude protein, 4% of crude cellulose and 197 g of digestable protein.

pubertal rats = experiment: growth stimulator efficiency in pubertal rats (Example 11, Table 6); format: in vivo, rat
Procedure: (§2) The efficiency of the growth stimulator was studied on young rats. The experiment was carried out with nondescript young rats weighting about 75 g in groups of 30 animals in each. The growth stimulator was administered perorally to each rat as an aqueous solution at a rate of from 0.1 to 0.001% by weight of the consumed daily diet. The administration of the growth stimulator was effected every day during 10 days. The observation period was 20 days; the rats were weighed after every 4 days. […] On completion of the experiment the animals were killed and the parenchymatous organs and peripheral blood were analyzed.
The growth stimulator efficiency was studied on pubertal rats. The experiment conditions were similar to those described in the foregoing Example 10.

animals and fowl = experiment: specific (growth-stimulating) activity on animals and fowl, general; format: in vivo
Source text: (§3) The study of specific activity of 3-(2,2,2-trimethylhydrazinium)-propionatewas effected on various animals: mice, rats, pigs, cattle, chickens, goslings, turkey poults and ducklings. The growth-controlling activity of this compound relative to plats has been studied on barley, oats, rye and wheat.

young rats = experiment: growth stimulator efficiency in young rats (Example 10, Table 5); format: in vivo, rat
Procedure: as §2

solubility = format: physicochemical
Procedure: The compound according to the present invention, viz. 3-(2,2,2-trimethylhydrazinium)propionate comprises a colourless crystalline powder with a melting point of 254°-256° C. (from ethanol). […] (p.p.m.): 6.70 singlet, (CH3)3 N; 6.89, triplet, CH2,

white-breed young pigs = experiment: growth stimulator efficiency in white-breed young pigs (Example 9, Table 4); format: in vivo, pig; conditions: 0.02% by weight, 122 days
Procedure: The efficiency of the growth stimulator was tested on white-breed young pigs deprived of mother's milk with the body weight of about 20 kg, […], in each group.
The young pigs were in the same pig sty and serviced by one operator; all of the animals were on the same diet consisting of barley flour, green mass of a vetch-oat mixture and whey. The animals were fed two times a day with free watering. To the feedstuff of the test group there were added 200 mg of 3-(2,2,2-trimethylhydrazinium)propionate per 1 kg of dry substance of the feed-stuff (0.02% by weight of the active principle).

[2] = tested on: barley, oats, rye and wheat; experiment: growth-controlling activity on plants; format: in vivo
Source text: as §3

[3] = tested on: microbless pig mini-sucklings; experiment: growth stimulant efficiency in microbless pig mini-sucklings (Example 8, Table 3); format: in vivo
Procedure: The efficiency of the growth stimulant for animals according to the present invention was tested in feeding of microbless animals. The test was carried out in microbless pig mini-sucklings grown without under sterile conditions in a comparison with pig mini sucklings grown keeping to the requirements of sterile conditions, since birth and to the age of two-months, a feedstuff containing 0.04% by weight of the active principle. Their growth was compared to that of 10 sucklings grown without keeping to sterility conditions and the development of 7 microbless pig sucklings. By the end of the experiment the test pig sucklings were 17.2% heavier than the microbless pig sucklings given no growth stimulant and 18.2% heavier than the sucklings grown under nonsterile conditions and given no growth stimulator.

chicks [4] = experiment: growth stimulant efficiency in chicks, 0.04% in feedstuff (Example 7, Table 2); format: in vivo; conditions: 0.04% by weight in feedstuff
Procedure: as §1
The experiment for testing efficiency of the growth stimulant for animals and fowl according to the present invention was carried out following the procedure similar to that described in the foregoing Example 6; added to the feedstuff was 0.04% by weight of the active principle based on the feedstuff weight. By the end of the 34-days' period the chicks of the test groups fed with the growth stimulant were 12.9% heavier.

in vivo = experiment: in vivo; parameters: species or system white mice; conditions: mouse, ip
Procedure: (§4) The toxicological study of 3-(2,2,2-trimethylhydrazinium)-propionate on white mice weighing 20-25 g has shown that with a single peroral administration to the animals in doses of up to 23,000 mg/kg the preparation causes no death of the animals.

white mice = experiment: in vivo; conditions: mouse
Procedure: as §4

[5] = 0.001% of the active principle, day 4
[6] = 0.001% of the active principle, day 8
[7] = 0.001% of the active principle, day 12
[8] = 0.001% of the active principle, day 16
[9] = 0.001% of the active principle, day 20
[10] = 0.01% of the active principle, day 4
[11] = 0.01% of the active principle, day 8
[12] = 0.01% of the active principle, day 12
[13] = 0.01% of the active principle, day 16
[14] = 0.01% of the active principle, day 20

C[N+](C)(C)NCCC(=O)[O-] [3-(2,2,2-trimethylhydrazinium)-propionate]
Average body weight of chicks, aged 30 days (chicks [1]): 289.4 g
weight gain compared to the control chicks (chicks [1]; 34 days): 7.7%
Average gain for the test time (chicks [1]; 34 days, control 364.5 ± 10.1): 392.7
Average body weight of chicks, aged 40 days (chicks [1]; end of 34 days, control 412.2 g): 440.5 g
Average body weight of chicks, aged 6 days (chicks [1]; test beginning (6 days of age)): 47.8 g
Percentage to the control (chicks [1]; average gain, control = 100.0): 107.7%
Weight on the weighing day (pubertal rats; [5]): 175 g
Weight on the weighing day (pubertal rats; [6]): 189 g
Weight on the weighing day (pubertal rats; [7]): 210 g
Weight on the weighing day (pubertal rats; [8]): 231 g
Weight on the weighing day (pubertal rats; [9]): 248 g
Weight on the weighing day (pubertal rats; [10]): 169 g
Weight on the weighing day (pubertal rats; [11]): 175 g
Weight on the weighing day (pubertal rats; [12]): 189 g
Weight on the weighing day (pubertal rats; [13]): 215 g
Weight on the weighing day (pubertal rats; [14]): 229 g
Weight on the weighing day (pubertal rats; 0.1% of the principle, day 4): 155 g
Weight on the weighing day (pubertal rats; 0.1% of the principle, day 8): 161 g
Weight on the weighing day (pubertal rats; 0.1% of the principle, day 12): 174 g
Weight on the weighing day (pubertal rats; 0.1% of the principle, day 16): 187 g
Weight on the weighing day (pubertal rats; 0.1% of the principle, day 20): 203 g
body weight gain (pubertal rats; active principle 0.001% by weight of the dry feedstuff): 13.5%
body weight gain (pubertal rats; active principle 0.101% (so in the source) by weight of the dry feedstuff): 9%
growth-stimulating activity (animals and fowl; animals and fowl): clearly pronounced growth-stimulating activity
daily weight gain (animals and fowl; depending on the variety of animals and fowl): 8-24%
metabolism (animals and fowl; test animals and fowl): metabolism is improved
reduction of the rate of feedstock consumption per weight gain unit (animals and fowl; test animals and fowl): 7-15%
increase of body weight gain of the rats (young rats; 0.001% by weight of the daily diet): 12.5%
Weight on the day of weighing (young rats; [5]): 76 g
Weight on the day of weighing (young rats; [6]): 99 g
Weight on the day of weighing (young rats; [7]): 131 g
Weight on the day of weighing (young rats; [8]): 154 g
Weight on the day of weighing (young rats; [9]): 164 g
increase of body weight gain of the rats (young rats; 0.01% by weight of the daily diet): 12%
Weight on the day of weighing (young rats; [10]): 79 g
Weight on the day of weighing (young rats; [11]): 93 g
Weight on the day of weighing (young rats; [12]): 125 g
Weight on the day of weighing (young rats; [13]): 139 g
Weight on the day of weighing (young rats; [14]): 158 g
effect on weight gain of the rats (young rats; 0.1% by weight of the daily diet): substantially did not affect the weight gain
Weight on the day of weighing (young rats; 0.1% of the active principle, day 4): 76 g
Weight on the day of weighing (young rats; 0.1% of the active principle, day 8): 95 g
Weight on the day of weighing (young rats; 0.1% of the active principle, day 12): 98 g
Weight on the day of weighing (young rats; 0.1% of the active principle, day 16): 107 g
Weight on the day of weighing (young rats; 0.1% of the active principle, day 20): 129 g
pathology of parenchymatous organs and peripheral blood (young rats; 0.1 to 0.001% by weight of the daily diet, perorally 10 days): No pathology was observed
solubility in ethanol and methanol (solubility; ethanol and methanol): well soluble
solubility in water (solubility; water): very readily soluble
Average daily weight gain, percent of the control (white-breed young pigs): 112.4% of the control
Feedstuff consumption per 1 kg of the body weight gain, % of control (white-breed young pigs): 92.9 % of control
weight gain higher as compared to the control group animals (white-breed young pigs): 7.4 kg
Feedstuff consumption per 1 kg of the body weight gain (white-breed young pigs; control 4.38): 4.07 feeding units
Body weight gain during the test period (white-breed young pigs; control 59.0 ± 2.1): 66.4 ± 3.6 kg
Average body weight by the test end (white-breed young pigs; control 74.0 ± 3.2): 88.2 ± 4.0 kg
Feedstuff consumption during the test period (white-breed young pigs; control 285.5): 270.7 feeding units
Average daily weight gain (white-breed young pigs; control 484 ± 17): 544 ± 32 g
reduction of consumption of feeding units per kilogram of the weight gain (white-breed young pigs; vs control): 7.1%
specific gravity of grain crops ([2]; grain crops): increased
yield gain of crops ([2]; grain crops): 15-30%
increase in the stem diameter of crops ([2]; oats, barley, rye, wheat): 15%
stability against lodging ([2]; oats, barley, rye, wheat): improving their stability against lodging
growth-controlling effect ([2]; plants): clearly pronounced growth-controlling effect
heavier than the microbless pig sucklings given no growth stimulant ([3]; 0.04% by weight, 2 months' age): 17.2%
heavier than the sucklings grown under nonsterile conditions and given no growth stimulator ([3]; 0.04% by weight, 2 months' age): 18.2%
Animal weight at the 2-months' age ([3]; microbless mini-pigs, 0.04% by weight of feedstuff, untreated microbless 3,271 ± 385, ordinary 3,244 ± 335): 3,833 ± 348 g
chicks heavier by the end of the 34-days' period (chicks [4]): 12.9%
Average body weight of chicks, aged 30 days (chicks [4]; control 261.9): 268.9 g
Average mass gain for the test time (chicks [4]; control 313 ± 3): 353 ± 8 g
Average body weight of chicks, aged 40 days (chicks [4]; control 364.3): 404.8 g
Average body weight of chicks, aged 6 days (chicks [4]; test beginning): 51.0 g
Percentage to the control (chicks [4]; mass gain, control = 100.0): 112.9%
NOAEL (in vivo): ≥ 10000 mg/kg
single peroral dose causing no death of the animals (white mice): up to 23,000 mg/kg
